Assay results from ChEMBL document CHEMBL5120824, “Synthesis and pharmacological validation of fluorescent diarylsulfonylurea analogues as NLRP3 inhibitors and imaging probes” (Eur J Med Chem, 2022).
Activity calls are given as the source filed them. No cut-off for these calls is given here.

Tests used:
[1] = Cytotoxicity against human THP-1 assessed as reduction in cell viability measured after 72 hrs by CCK-8 assay; type: toxicity, cell-based; conditions: THP-1 cells
[2] = target: NACHT, LRR and PYD domains-containing protein 3 (Homo sapiens, UniProt Q96P20); assay: Inhibition of NLRP3 inflammasome activation in PMA differentiated LPS-primed human THP-1 cells assessed as reduction in nigericin-induced IL-1beta level pretreated for 2 hrs followed by nigericin addition and measured after 30 mins by ELISA; type: cell-based
Sequence of NACHT, LRR and PYD domains-containing protein 3 (Q96P20 whole entry, the tested form may be a part): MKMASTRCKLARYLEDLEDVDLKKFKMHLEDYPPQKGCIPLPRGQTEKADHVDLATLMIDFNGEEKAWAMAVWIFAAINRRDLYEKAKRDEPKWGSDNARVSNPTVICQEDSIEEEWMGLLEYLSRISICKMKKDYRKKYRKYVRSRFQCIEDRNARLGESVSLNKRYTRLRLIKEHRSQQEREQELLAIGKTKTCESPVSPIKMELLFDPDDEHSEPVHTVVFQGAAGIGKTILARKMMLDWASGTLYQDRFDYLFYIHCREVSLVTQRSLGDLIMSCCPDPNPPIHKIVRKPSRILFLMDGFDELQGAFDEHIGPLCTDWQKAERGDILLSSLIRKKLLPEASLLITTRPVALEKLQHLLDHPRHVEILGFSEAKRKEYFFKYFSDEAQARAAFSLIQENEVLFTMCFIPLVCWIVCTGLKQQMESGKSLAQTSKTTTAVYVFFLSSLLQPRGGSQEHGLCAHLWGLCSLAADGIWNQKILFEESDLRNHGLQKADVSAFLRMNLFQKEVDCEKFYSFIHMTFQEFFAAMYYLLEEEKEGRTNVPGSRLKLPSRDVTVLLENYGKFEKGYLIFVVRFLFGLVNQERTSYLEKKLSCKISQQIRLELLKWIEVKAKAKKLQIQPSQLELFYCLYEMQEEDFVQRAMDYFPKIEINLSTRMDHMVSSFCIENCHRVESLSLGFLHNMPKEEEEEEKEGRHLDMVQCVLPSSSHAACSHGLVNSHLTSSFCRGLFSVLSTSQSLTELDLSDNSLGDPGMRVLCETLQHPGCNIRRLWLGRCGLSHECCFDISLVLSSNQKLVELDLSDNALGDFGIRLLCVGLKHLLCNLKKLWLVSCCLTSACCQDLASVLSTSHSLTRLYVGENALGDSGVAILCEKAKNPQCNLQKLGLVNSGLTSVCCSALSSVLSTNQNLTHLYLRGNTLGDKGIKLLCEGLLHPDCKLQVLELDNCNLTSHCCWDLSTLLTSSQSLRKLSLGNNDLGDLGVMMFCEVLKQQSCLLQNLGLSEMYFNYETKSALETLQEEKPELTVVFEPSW

[3] = Fluorescence property of the compound in DMSO assessed as maximum absorption wavelength; type: physicochemical
[4] = target: NACHT, LRR and PYD domains-containing protein 3 (Mus musculus) (UniProt Q8R4B8); assay: Binding affinity to NLRP3 in mouse RAW264.7 cells assessed as thermal stabilization at 100 uM at 52 to 56 degreeC incubated for 6 hrs by cellular thermal shift assay; type: cell-based
Sequence of NACHT, LRR and PYD domains-containing protein 3 (Mus musculus) (Q8R4B8 whole entry, the tested form may be a part): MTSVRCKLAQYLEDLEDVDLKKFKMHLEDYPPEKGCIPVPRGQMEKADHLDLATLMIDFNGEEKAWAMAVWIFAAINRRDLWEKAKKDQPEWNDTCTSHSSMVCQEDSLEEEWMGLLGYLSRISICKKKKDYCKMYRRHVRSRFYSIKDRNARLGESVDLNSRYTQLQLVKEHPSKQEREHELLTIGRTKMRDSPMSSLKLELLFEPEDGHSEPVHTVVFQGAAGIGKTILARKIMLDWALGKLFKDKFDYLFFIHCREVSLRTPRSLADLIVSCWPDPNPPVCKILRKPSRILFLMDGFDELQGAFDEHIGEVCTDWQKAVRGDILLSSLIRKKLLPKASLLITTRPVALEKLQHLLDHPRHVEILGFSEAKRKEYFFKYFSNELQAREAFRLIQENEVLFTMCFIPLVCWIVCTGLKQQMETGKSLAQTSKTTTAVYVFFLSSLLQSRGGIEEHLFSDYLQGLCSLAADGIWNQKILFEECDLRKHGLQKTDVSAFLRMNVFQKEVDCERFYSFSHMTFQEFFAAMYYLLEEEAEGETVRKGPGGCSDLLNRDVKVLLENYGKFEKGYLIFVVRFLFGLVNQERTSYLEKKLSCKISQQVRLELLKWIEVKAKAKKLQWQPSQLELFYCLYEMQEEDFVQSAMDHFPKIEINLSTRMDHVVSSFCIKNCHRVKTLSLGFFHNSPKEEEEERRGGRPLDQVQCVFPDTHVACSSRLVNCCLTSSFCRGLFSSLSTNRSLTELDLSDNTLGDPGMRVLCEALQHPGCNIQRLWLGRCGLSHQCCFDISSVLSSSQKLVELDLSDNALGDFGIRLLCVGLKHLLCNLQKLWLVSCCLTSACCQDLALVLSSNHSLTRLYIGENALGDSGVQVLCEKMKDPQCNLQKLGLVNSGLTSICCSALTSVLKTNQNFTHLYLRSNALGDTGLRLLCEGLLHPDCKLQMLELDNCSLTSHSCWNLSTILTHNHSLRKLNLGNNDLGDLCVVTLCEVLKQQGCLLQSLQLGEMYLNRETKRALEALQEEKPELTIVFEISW

[5] = target: NACHT, LRR and PYD domains-containing protein 3 (Mus musculus) (UniProt Q8R4B8); assay: Binding affinity to NLRP3 in mouse RAW264.7 cells assessed as increase in mean fluorescence intensity at 10 uM incubated for 30 mins by beckman coulter based flow cytometry analysis; type: cell-based
[6] = Drug distribution in cytoplasm of mouse RAW264.7 cells expressing NLRP3 assessed as increase in green fluorescence at 10 uM incubated for 0.5 hrs by Hoechst 33342 staining based confocal microscopic analysis; type: ADME, subcellular; conditions: raw264.7, 0.5 h
[7] = Fluorescence property of the compound in DMSO assessed as molar extinction coefficient; type: physicochemical
[8] = target: NACHT, LRR and PYD domains-containing protein 3 (Mus musculus) (UniProt Q8R4B8); assay: Binding affinity to NLRP3 in mouse RAW264.7 cells assessed as increase in mean fluorescence intensity at 10 uM preincubated with LPS for 3 hrs followed by compound addition and measured after 30 mins by beckman coulter based flow cytometry analysis; type: cell-based
[9] = Fluorescence property of the compound in DMSO assessed as quantum yield; type: physicochemical
[10] = Fluorescence property of the compound in DMSO assessed as maximum emission wavelength; type: physicochemical

O=C(Nc1c2c(cc3c1CCC3)CCC2)NS(=O)(=O)c1ccc(Cl)c2nonc12
CC50 at 72 h [1]: > 100 µM

CC(C)(O)c1coc(S(=O)(=O)NC(=O)Nc2c3c(cc4c2CCC4)CCC3)c1
CC50 at 72 h [1]: 81.4 µM

O=C(Nc1c2c(cc3c1CCC3)CCC2)NS(=O)(=O)c1ccc(N2CCN(CCO)CC2)c2nonc12
IC50 [2]: 2.38 µM | CC50 at 72 h [1]: > 100 µM

CN(C)c1ccc(S(=O)(=O)NC(=O)Nc2c3c(cc4c2CCC4)CCC3)c2nsnc12
Activity [3]: 450 nm | Activity [4]: Active | Activity [5]: Active | Drug uptake [6]: Active | Activity [7]: 8085 M⁻¹ cm⁻¹ | Activity [8]: Active | Activity [9]: 6% | CC50 at 72 h [1]: > 100 µM | Activity [10]: 602 nm

O=C(Nc1c2c(cc3c1CCC3)CCC2)NS(=O)(=O)c1ccc(N2CCOCC2)c2nonc12
CC50 at 72 h [1]: > 100 µM

CN(C)c1ccc(S(=O)(=O)NC(=O)Nc2c3c(cc4c2CCC4)CCC3)c2nonc12
Activity [3]: 448 nm | Activity [4]: Active | Activity [7]: 7406 M⁻¹ cm⁻¹ | Activity [9]: 16% | CC50 at 72 h [1]: > 100 µM | Activity [10]: 586 nm

CN(C)[C@@H]1CCCC[C@H]1N(C)c1ccc(S(=O)(=O)NC(=O)Nc2c3c(cc4c2CCC4)CCC3)c2nonc12
CC50 at 72 h [1]: > 100 µM

O=C(Nc1c2c(cc3c1CCC3)CCC2)NS(=O)(=O)c1ccc(N2CC3CCC(C2)O3)c2nonc12
CC50 at 72 h [1]: > 100 µM

CN(C)c1cccc2c(S(=O)(=O)NC(=O)Nc3c4c(cc5c3CCC5)CCC4)cccc12
IC50 [2]: 9.18 µM | CC50 at 72 h [1]: > 100 µM

O=C(Nc1c2c(cc3c1CCC3)CCC2)NS(=O)(=O)c1ccc(N2C[C@@H]3[C@@H](CO)[C@@H]3C2)c2nonc12
CC50 at 72 h [1]: > 100 µM

CN(C)c1ccc(S(=O)(=O)NC(=O)Nc2c3c(cc4c2CCC4)CCC3)c2n[se]nc12
CC50 at 72 h [1]: > 100 µM

O=C(Nc1c2c(cc3c1CCC3)CCC2)NS(=O)(=O)c1ccc(NC2CC(F)(F)C2)c2nonc12
CC50 at 72 h [1]: > 100 µM

CC(C)(C)OC(=O)NC1CN(c2ccc(S(=O)(=O)NC(=O)Nc3c4c(cc5c3CCC5)CCC4)c3nonc23)C1
CC50 at 72 h [1]: > 100 µM

CSc1ccc(S(=O)(=O)NC(=O)Nc2c3c(cc4c2CCC4)CCC3)c2nonc12
CC50 at 72 h [1]: > 100 µM
